Test results: ChEMBL document CHEMBL3045817, “Magnetic resonance assays of haloperidol in human serum albumin” (Med Chem Res, 2011); call rule not given here

Key:
[1] = system: Brain; assay: Drug uptake in healthy Homo sapiens (human) brain by NMR analysis; assay type: ADME, tissue-based
[2] = Bioavailability in Homo sapiens (human) at 2.5 mg, intramuscular after 15 min; assay type: ADME, organism-based; details: in vivo, im
[3] = Bioavailability in Homo sapiens (human) at 2.5 mg, intranasal after 15 min; assay type: ADME, organism-based; details: in vivo, inhaled or intranasal
[4] = Plasma protein binding in Homo sapiens (human); assay type: ADME, cell-free; details: read-out: PPB (converted)
[5] = Drug uptake in depression pateint brain at 20 mg/day after 3 days by NMR analysis; assay type: ADME; details: human, read-out: Drug uptake
[6] = target: Albumin (Homo sapiens, UniProt P02768); assay: Binding affinity to Homo sapiens (human) serum albumin at 1.5 to 800 ug/ml by NMR analysis; assay type: ADME; details: isolated protein
Albumin, sequence (P02768 whole entry): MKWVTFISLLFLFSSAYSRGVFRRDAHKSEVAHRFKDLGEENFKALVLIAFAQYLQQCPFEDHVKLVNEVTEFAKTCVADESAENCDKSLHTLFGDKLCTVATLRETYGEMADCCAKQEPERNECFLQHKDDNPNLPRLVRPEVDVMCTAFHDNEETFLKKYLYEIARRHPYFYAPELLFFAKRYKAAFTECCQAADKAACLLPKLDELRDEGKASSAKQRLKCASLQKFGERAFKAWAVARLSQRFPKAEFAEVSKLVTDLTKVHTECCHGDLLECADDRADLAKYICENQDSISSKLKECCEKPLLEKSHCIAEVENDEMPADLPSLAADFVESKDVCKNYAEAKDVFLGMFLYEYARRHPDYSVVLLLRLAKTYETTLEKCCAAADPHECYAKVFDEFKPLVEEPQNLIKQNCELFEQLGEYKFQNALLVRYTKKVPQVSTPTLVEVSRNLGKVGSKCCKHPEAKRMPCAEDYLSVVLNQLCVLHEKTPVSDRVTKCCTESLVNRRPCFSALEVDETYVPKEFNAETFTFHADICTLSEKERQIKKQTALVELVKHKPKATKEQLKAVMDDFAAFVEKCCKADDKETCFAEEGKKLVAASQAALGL

For `OCCN1CCN(CCCN2c3ccccc3Sc3ccc(C(F)(F)F)cc32)CC1` [FLUPHENAZINE], the Drug uptake [1] was 4 µg/mL.
Compound `O=C(CCCN1CCC(O)(c2ccc(Cl)cc2)CC1)c1ccc(F)cc1` [HALOPERIDOL] has a bioavailability [2] of 48.6%, a bioavailability [3] of 63.8% and a fraction unbound [4] of 0.1.
Compound `Fc1ccc([C@@H]2CCNC[C@H]2COc2ccc3c(c2)OCO3)cc1` [PAROXETINE] has a concentration at 72 h [5] of 6000 ng/mL.
In the case of `CN1CCN(CCCN2c3ccccc3Sc3ccc(C(F)(F)F)cc32)CC1` [TRIFLUOPERAZINE], the Drug uptake [1] is reported as 4 µg/mL.
With `O=C(CCCN1CCC(O)(c2ccc(Cl)cc2)CC1)c1ccc([19F])cc1` [[19F]-HALOPERIDOL] the Activity [6] was “Active”.
